Four compounds from US20230365673A1, “MEANS FOR REDUCING RADIO- AND CHEMOTHERAPY RESISTANCE AND ADVERSE EFFECTS” (JOHANN WOLFGANG GOETHE-UNIVERSITÄT FRANKFURT AM MAIN, priority 2020, published 2023) can be followed below.

In test [1] the test system is APTKA medium conditioned mouse fibroblasts. In words: p21, pH2AX and SA-βgal staining of APTKA medium conditioned fibroblasts. It is filed as cell-based. To be noted: 5-FU treated vs non-treated. On the procedure:
(§1) FIG. 7: (A) APTKA organoids orthotopic transplantation into C57BL/6 mice followed by 5-fluorouracil (5-FU) chemotherapy (20 mg/Kg/day every 4 days for 21 days—experiment end point). Tumour area (mm3), % invasive area and liver metastasis frequency in untreated and 5-FU treated APTKA tumours (n=2 mice per group). Significant p-value<0.05 by t-test. (B and C) p21, pH2Ax IF and SA-ß gal staining quantifications and representative SA-ß gal staining images among untreated and 5-FU treated IL-1α (1 μg/mL) stimulated human fibroblasts and APTKA conditioned medium treated mouse fibroblasts. Significant p-value<0.05. Results representative of 4 independent experiments. Scale bars=100 μm.
In staining experiments, the inventors quantified the presence of nuclear p21, nuclear phosphorylated H2AX (pH2AX) and SA-βgal in APTKA medium conditioned mouse fibroblasts that were either left untreated or treated with 5-FU. […] (FIG. 7B). Overall, these experiments confirmed a chemotherapy induced senescence of the fibroblasts, when exposed to 5-FU.

The subject of a further test is APTKA orthotopic tumours. In words: Orthotopic APTKA organoid model with 5-FU chemotherapy, with or without radiotherapy. It is filed as in vivo, C57BL/6 mice. As to conditions: 21 days. On the procedure:
as §1
The inventors further investigated, whether therapy resistance of tumours during treatment with cytotoxic chemotherapy is also connected to the senescence behavior of CAFs. For this, the orthotopic APTKA organoid C57BL/6 mice of the inventors' murine model were divided in three groups and subjected to different treatments. The groups consisted of a control group of untreated mice, a second group that was administered 20 mg/kg/day of the cytotoxic chemotherapeutic agent […] (5-FU) every 4 days and a third group that was treated with a therapy based on a concomitant administration of 5-FU and radiation therapy based on a fractionated irradiation schedule (5×2 Gy). After 21 days of treatment, parameters of tumour progression were determined. […] Overall, in vivo administration of the chemotherapy aggravated invasive growth and stimulated formation of liver metastases similarly to irradiation.

Test [2] relates to IL-1α stimulated human fibroblasts. In words: p21, pH2AX and SA-βgal staining of IL-1α stimulated fibroblasts. It is filed as cell-based. To be noted: IL-1α 1 μg/mL stimulated, 5-FU treated vs untreated. On the procedure: as §1
Moreover, the inventors investigated the influence of chemotherapy on the IL-1α mediated changes to the tumour microenvironment in human cancer patients. Using staining experiments, the upregulation of pH2AX, p21, and SA-βgal in untreated and 5-FU treated IL-1α (1 μg/mL) stimulated human fibroblasts was quantified. […] Thus, targeting IL-1 in combination with chemotherapy may provide a substantial benefit particularly in tumours that are known to contain inflammatory cancer-associated fibroblasts such as pancreatic cancer, breast cancer or head and neck cancers.

The subject of test [3] is primary mouse colon fibroblasts. In words: Inflammatory gene expression (RT-qPCR/RNAseq) in fibroblasts treated with APTKA conditioned medium. It is filed as cell-based. As to conditions: APTKA conditioned medium, 24 h, RT-qPCR. As for the experimental part:
(A) Schematic illustration of APTKA or APTK organoids supernatant collection and treatment of primary mouse colon fibroblasts of unchallenged wildtype C57BL/6 mice. […] (F) Relative expression analysis by RT-qPCR of inflammatory genes in untreated wildtype and APTKA conditioned medium treated fibroblasts in the presence of IKKß inhibitor ML120B (30 μM) and p38 MAPK inhibitor SB203580 (10 μM) for 24 h (n=4 independent wells per group). Data are mean±SD. p<0.05 by one-way ANOVA followed by Tukey's multiple comparisons test. Representative results from one experiment which has been independently repeated 3 times. (G and H) RNA sequencing analysis of APTKA (n=3) and APTK (n=3) organoids: (G) heat map analysis; (H) differentially expressed cytokines in APTKA (Log 2 fold change≤−1) compared to APTK organoids (log 2 fold Change≥1). p-value<0.05. (I) RT-qPCR analysis of inflammatory genes in APTKA conditioned fibroblasts treated with control IgG, α-IL-1α, α-IL-33, α-TNF-α, α-BAFF or α-CXCL16 neutralizing antibodies (2 μg/mL each) for 24 h (n=4 independent wells per group). Data are mean±SD. **** p<0.0001 by one-way ANOVA followed by Tukey's multiple comparisons test. Experiment performed twice. (J) RNA expression profiles of inflammatory genes in APTKA conditioned fibroblasts stimulated for 24 h then subjected to anakinra (10 μg/mL), APTKA fresh or regular medium treatments for another 24 h (n=4 independent wells per condition). Data are mean±SD; p<0.05 by one-way ANOVA followed by Tukey's multiple comparisons test. Representative results from one experiment which has been independently repeated 2 times.
To examine whether APTK and APTKA tumour organoids differentially affect surrounding fibroblasts in tumours directly in a paracrine manner, supernatants were collected from both tumour organoid lines and treated primary intestinal fibroblasts of unchallenged wildtype mice for 24 hours with the two different tumour-conditioned media ex vivo (FIG. 3A). RNAseq analysis confirmed distinct gene expression patterns in fibroblasts exposed to the two organoid supernatants (FIG. 3B).
The inventors then aimed to identify the upstream factors secreted by APTKA organoids that were responsible for activating NF-κB and p38 in fibroblasts. To this end RNAseq analysis of APTK and APTKA tumour organoids were performed and identified several differentially expressed genes encoding cytokines (FIG. 3G, H). Using neutralizing antibodies, NF-κB and p38 inducing cytokines TNFα, IL-1α, IL-33, BAFF or CXCL16 were blocked in APTKA supernatants and expression of Cxcl1, Cxcl2, Cxcl5 and Ilia as inflammatory marker genes in fibroblasts was examined.
To do so, fibroblasts were stimulated for 24 hours with APTKA conditioned medium before adding anakinra, adding fresh APTKA medium or changing medium to regular medium.
(In general: Quantitative PCR measures a nucleic acid by following its amplification.)

The subject of test [4] is colon fibroblasts. In words: Nitrite concentration by Griess assay in fibroblast supernatants. It is filed as cell-based, mouse. To be noted: APTKA-conditioned medium plus W1400 1 mM. As for the experimental part:
(§2) (A) Schematic illustration of APTKA organoids supernatant collection and treatment of colon fibroblasts from unchallenged wildtype C57BL/6 mice for 12 h followed by 3×2 Gy irradiation. Microscopic, proteomic & transcriptomic analysis were performed 72 h post first irradiation. (B) Microscopic captures of non-irradiated wildtype (WT) and APTKA conditioned fibroblasts. Remaining captures belong to irradiated fibroblasts: WT, IL-1α (1 μg/mL) stimulated WT, and APTKA conditioned media minus or plus anakinra (20 μg/mL) treated fibroblasts. Scale bars=200 μm. (C) Mass spectrometric analysis of matrisome profiles of 3×2 Gy irradiated (n=8) and non-irradiated (n=8) APTKA conditioned fibroblasts. […] (G) Immunoblot analysis of untreated and irradiated APTKA conditioned fibroblasts. Representative results from one experiment which has been independently repeated 2 times. (H) SA-ß gal staining of untreated and irradiated APTKA fibroblasts. Scale bars=100 μm. (I and J) p21 and pH2AX immunofluorescent staining of untreated and irradiated APTKA fibroblasts. Scale bars=[…]. Data are mean±SD. ** […] and *** p<0.001 by t-test. (K) Nitrite concentration determined by Griess assay in conditioned media from WT, APTK media, APTKA media, IL-1α (1 μg/mL) stimulated and APTKA plus anakinra (20 μg/mL) treated fibroblasts for 72 h (n=10 independent wells per group). […]
On the technique in general: Nitrite, measured by Griess reagent, commonly stands in for NO production.

The test system of test [5] is colon fibroblasts. In words: Oxidative DNA damage by 8-OHdG immunofluorescence in fibroblasts. It is filed as cell-based, mouse. As to conditions: APTKA-conditioned medium plus W1400 1 mM, 72 h. As for the experimental part: as §2
The test system of test [6] is APTKA conditioned fibroblasts. In words: Senescence induction in fibroblasts treated with APTKA-conditioned medium. It is filed as cell-based, mouse. To be noted: APTKA-conditioned medium plus W1400. On the procedure: as §2
[7] abbreviates: 5-FU only, 20 mg/kg/day every 4 days, vs untreated control.
Setting [8] is: concomitant 5-FU and radiotherapy (5×2 Gy), vs untreated control.

In the case of `O=c1[nH]cc(F)c(=O)[nH]1` [5-FU, 5-fluorouracil], in test [1], the SA-βgal staining entry was “significant upregulation of SA-βgal”; the “nuclear p21” value is “significant upregulation of SA-βgal and nuclear p21”; the “nuclear phosphorylated H2AX (pH2AX)” value is listed as “significant increase of pH2AX”. Also, in the test on APTKA orthotopic tumours (setting [7]), the liver metastases result was “have developed liver metastases”; the tumour area entry is “significant increase in tumour area”; the “tumour invasiveness (% invasive area)” value was “significant increase in tumour area and tumour invasiveness”. Besides, the liver metastases entry in the test with APTKA orthotopic tumours (concomitant 5-FU and radiotherapy (5×2 Gy)) is “every mouse of this group suffered from liver metastases”. For the same compound, in the test with APTKA orthotopic tumours (setting [8]), the invasive area result is “significant increase in tumour area and invasive area”; the tumour area result is given as “significant increase in tumour area”. In addition, in test [2], the SA-βgal result is “significant increase of all three biomarkers”, the p21 result is recorded as “significant increase of all three biomarkers” and the pH2AX result is “significant increase of all three biomarkers”.
Turning to `COc1c(Cl)cc2c([nH]c3cnccc32)c1NC(=O)c1cccnc1C` [ML120B], the “induction of pro-inflammatory genes (Cxcl1, Cxcl2, Cxcl5, Mmp9, Mmp13, Il1a, 116, Tnfa, Nos2)” value in test [3] (ML120B 30 μM) is reported as “significantly inhibited the induction of pro-inflammatory genes”.
Consider `C[S+]([O-])c1ccc(-c2nc(-c3ccncc3)c(-c3ccc(F)cc3)[nH]2)cc1` (centres unmarked) [SB203580], for which the “induction of pro-inflammatory genes (Cxcl1, Cxcl2, Cxcl5, Mmp9, Mmp13, Il1a, 116, Tnfa, Nos2)” value in test [3] (SB203580 10 μM) was “significantly inhibited the induction of pro-inflammatory genes”.
`CC(=N)NCc1cccc(CN)c1` [W1400]: the nitrite production entry with colon fibroblasts [4] is recorded as “blocked nitrite production”. The “oxidative DNA damage (8-OHdG immunofluorescence)” value with colon fibroblasts [5] was “prevented oxidative DNA damage”. The senescence induction result in test [6] is recorded as “prevented oxidative DNA damage as well as senescence induction”.
